Laboratory results reported in article PMC5601486, “Identification of 4-phenylquinolin-2(1H)-one as a specific allosteric inhibitor of Akt” (Scientific Reports, 2017).

What was measured:
[1] = tested on: cleaved caspase 3; assay: Western blot of cleaved caspase 3; format: cell-based, Mouse; settings: Neuro 2A cells
Procedure: Neuro 2A cells were seeded in 12-well plates in DMEM containing 5% FBS for 24 hr.
After overnight serum starvation (in 0% FBS DMEM), cells were incubated for 30 min at 37 °C with G7 or LY294002 or Torin 1 (Sigma Aldrich) at various concentrations, or DMSO control. IGF-1 was added to each well at a final concentration of 100 ng/mL. After 30-min incubation cells were washed with cold PBS and lysed with 50 µL lysis buffer containing 1% Triton X-100 and protease/phosphatase inhibitors (Cell Signaling Technology) or RIPA buffer (Santa Cruz Biotech). Samples were electrophoresed in 4–12% Bis-Tris gels (Life Technologies) at 150 V using MOPS SDS running buffer. Proteins were transferred electrophoretically to a PVDF or nitrocellulose membrane. For detection of cleaved […]
caspase 3 a Trans-Blot Turbo Transfer System (Bio-Rad, 25 V for 25 min) with PVDF membrane were used. […]
anti- GAPDH (14C10) antibody (#2118) (all antibodies were from Cell Signaling Technology unless indicated, 1:1000 dilution was used) at 4°C overnight, washed three times with TBS-T, then incubated with peroxidase-conjugated secondary antibody (Sigma-Aldrich) for 1 hr at room temperature. […] Band intensity was quantitated using Kodak 1D imaging analysis software. […]

[2] = tested on: T1, CDC2L5; assay: KINOMEscan; format: binding, human; settings: 50000 nM
T1 construct: purchased DiscoveRx KINOMEscan

[3] = tested on: T2, PKNB(M.tuberculosis); assay: KINOMEscan; format: binding; settings: 50000 nM
T2 construct: purchased DiscoveRx KINOMEscan

[4] = tested on: BMPR1A; assay: KINOMEscan; settings: 50000 nM
Procedure: KINOMEscan™ selectivity screen
(§1) The assay was perfor med at DiscoveRx Corporation according the methods published previously5. Briefly, Kinase-tagged T7 phage strains were grown in parallel in an E. coli host derived from the BL21 strain. E. coli were grown to log-phase and infected with T7 phage from a frozen stock and incubated with shaking at 32°C until lysis (90-150 minutes). The kinases were produced in HEK-293 cells and subsequently tagged with DNA for qPCR detection. Streptavidin-coated magnetic beads were treated with biotinylated small molecule ligands to generate affinity resins for kinase
(§2) inhibitor or DMSO control was performed in polypropylene 384-well plates for 1 hr at room temperature. After wash with PBS buffer containing 0.05% Tween 20, the beads were incubated in elution buffer (PBS containing 0.05 % Tween 20 and 0.5 μM non-biotinylated affinity ligand) for 30 minutes at room temperature. The kinase concentration in the eluates was measured by qPCR.

[5] = tested on: CAMK4; assay: KINOMEscan; settings: 50000 nM
Procedure: KINOMEscan™ selectivity screen
as §1, §2

[6] = tested on: NEK5; assay: KINOMEscan; settings: 50000 nM
Procedure: KINOMEscan™ selectivity screen
as §1, §2

[7] = tested on: PRKCD; assay: KINOMEscan; settings: 50000 nM
Procedure: KINOMEscan™ selectivity screen
as §1, §2

[8] = tested on: TESK1; assay: KINOMEscan; settings: 50000 nM
Procedure: KINOMEscan™ selectivity screen
as §1, §2

[9] = tested on: TGFBR1; assay: KINOMEscan; settings: 50000 nM
Procedure: KINOMEscan™ selectivity screen
as §1, §2

[10] = tested on: LIMK2; assay: KINOMEscan; settings: 50000 nM
Procedure: KINOMEscan™ selectivity screen
as §1, §2

[11] = tested on: PRKD1; assay: KINOMEscan; settings: 50000 nM
Procedure: KINOMEscan™ selectivity screen
as §1, §2

[12] = tested on: CAMK2B; assay: KINOMEscan; settings: 50000 nM
Procedure: KINOMEscan™ selectivity screen
(§3) Briefly, Kinase-tagged T7 phage strains were grown in parallel in an E. coli host derived from the BL21 strain. E. coli were grown to log-phase and infected with T7 phage from a frozen stock and incubated with shaking at 32°C until lysis (90-150 minutes). The kinases were produced in HEK-293 cells and subsequently tagged with DNA for qPCR detection. Streptavidin-coated magnetic beads were treated with biotinylated small molecule ligands to generate affinity resins for kinase
as §2

[13] = tested on: IKK-alpha; assay: KINOMEscan; settings: 50000 nM
Procedure: KINOMEscan™ selectivity screen
as §1, §2

[14] = tested on: NIM1; assay: KINOMEscan; settings: 50000 nM
Procedure: KINOMEscan™ selectivity screen
as §3, §2

[15] = tested on: EPHA6; assay: KINOMEscan; settings: 50000 nM
Procedure: KINOMEscan™ selectivity screen
as §3, §2

[16] = tested on: SRMS; assay: KINOMEscan; settings: 50000 nM
Procedure: as §3, §2

[17] = tested on: CAMK1D; assay: KINOMEscan; settings: 50000 nM
Procedure: as §3, §2

[18] = tested on: CAMK2A; assay: KINOMEscan; settings: 50000 nM
Procedure: KINOMEscan™ selectivity screen
as §1, §2

[19] = tested on: STK39; assay: KINOMEscan; settings: 50000 nM
Procedure: KINOMEscan™ selectivity screen
as §1, §2

[20] = tested on: PIP5K2C; assay: KINOMEscan; settings: 50000 nM
Procedure: KINOMEscan™ selectivity screen
as §3, §2

[21] = tested on: RIOK2; assay: KINOMEscan; settings: 50000 nM
Procedure: KINOMEscan™ selectivity screen
as §1, §2

[22] = tested on: ALK(C1156Y); assay: KINOMEscan; settings: 50000 nM
Procedure: KINOMEscan™ selectivity screen
as §1, §2

[23] = tested on: CAMKK1; assay: KINOMEscan; settings: 50000 nM
Procedure: KINOMEscan™ selectivity screen
as §1, §2

[24] = tested on: NEK9; assay: KINOMEscan; settings: 50000 nM
Procedure: KINOMEscan™ selectivity screen
as §1, §2

[25] = tested on: SIK2; assay: KINOMEscan; settings: 50000 nM
Procedure: KINOMEscan™ selectivity screen
as §3, §2

[26] = tested on: CAMK1G; assay: KINOMEscan; settings: 50000 nM
Procedure: KINOMEscan™ selectivity screen
as §3, §2

[27] = tested on: MAK; assay: KINOMEscan; settings: 50000 nM
Procedure: KINOMEscan™ selectivity screen
as §1, §2

[28] = tested on: CTK; assay: KINOMEscan; settings: 50000 nM
Procedure: KINOMEscan™ selectivity screen
as §3, §2

[29] = tested on: PKMYT1; assay: KINOMEscan; settings: 50000 nM
Procedure: KINOMEscan™ selectivity screen
as §3, §2

[30] = tested on: PIM3; assay: KINOMEscan; settings: 50000 nM
Procedure: KINOMEscan™ selectivity screen
as §1, §2

[31] = tested on: JAK2(JH1domain-catalytic); assay: KINOMEscan; settings: 50000 nM
Procedure: KINOMEscan™ selectivity screen
as §3, §2

[32] = tested on: MST3; assay: KINOMEscan; settings: 50000 nM
Procedure: KINOMEscan™ selectivity screen
as §1, §2

[33] = tested on: ABL1(E255K)-phosphorylated; assay: KINOMEscan; settings: 50000 nM
Procedure: KINOMEscan™ selectivity screen
as §1, §2

[34] = tested on: AURKA; assay: KINOMEscan; settings: 50000 nM
Procedure: KINOMEscan™ selectivity screen
as §1, §2

[35] = tested on: PIP5K1C; assay: KINOMEscan; settings: 50000 nM
Procedure: KINOMEscan™ selectivity screen
as §1, §2

[36] = tested on: ABL1(Q252H)-phosphorylated; assay: KINOMEscan; settings: 50000 nM
Procedure: KINOMEscan™ selectivity screen
as §1, §2

[37] = tested on: PDGFRB; assay: KINOMEscan; settings: 50000 nM
Procedure: KINOMEscan™ selectivity screen
as §3, §2

[38] = tested on: RSK2(Kin.Dom.1-N-terminal); assay: KINOMEscan; settings: 50000 nM
Procedure: KINOMEscan™ selectivity screen
as §1, §2

[39] = tested on: CSNK1E; assay: KINOMEscan; settings: 50000 nM
Procedure: KINOMEscan™ selectivity screen
as §1, §2

Structure (SMILES): Oc1cc(-c2ccccc2)c2ccccc2n1 [G7, 4-phenylquinolin-2(1H)-one]
- levels of the cleaved caspase 3 [1]: elevated levels
- Percent Control [2]: 87%
- Percent Control [3]: 43%
- Percent Control [4]: 100%
- Percent Control [5]: 100%
- Percent Control [6]: 100%
- Percent Control [7]: 100%
- Percent Control [8]: 100%
- Percent Control [9]: 100%
- Percent Control [10]: 97%
- Percent Control [11]: 96%
- Percent Control [12]: 92%
- Percent Control [13]: 92%
- Percent Control [14]: 90%
- Percent Control [15]: 88%
- Percent Control [16]: 88%
- Percent Control [17]: 87%
- Percent Control [18]: 87%
- Percent Control [19]: 85%
- Percent Control [20]: 83%
- Percent Control [21]: 83%
- Percent Control [22]: 80%
- Percent Control [23]: 80%
- Percent Control [24]: 80%
- Percent Control [25]: 78%
- Percent Control [26]: 77%
- Percent Control [27]: 77%
- Percent Control [28]: 74%
- Percent Control [29]: 65%
- Percent Control [30]: 64%
- Percent Control [31]: 61%
- Percent Control [32]: 59%
- Percent Control [33]: 56%
- Percent Control [34]: 50%
- Percent Control [35]: 44%
- Percent Control [36]: 33%
- Percent Control [37]: 23%
- Percent Control [38]: 17%
- Percent Control [39]: 15%
